“And” between values parts separate entries of the source, which are not always exact repeats. Identical values can stand only once. Toxic doses and inconclusive results are not listed. How the source made its calls: active means survival T/C of 150% or more; inactive means T/C below 125% in these data.
Test system: CD2F1 mice, L1210 leukemia ip, survival T/C
Experiment: NCI In Vivo Anticancer Drug Screen. Data for tumor model L1210 Leukemia (intraperitoneal) in CD2F1 (CDF1) mice
Conditions: higher = longer survival
Method in brief: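 In this screen, transplantable tumors were grown in mice given either the compound or its vehicle. Results were expressed as the treated measurement relative to the control measurement.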

[1] = endpoint: mean survival time, dose: 100.0 mg/kg/injection, schedule: Q04DX002 (ip), vehicle: saline
[2] = endpoint: mean survival time, dose: 200.0 mg/kg/injection, schedule: Q04DX002 (ip), vehicle: saline
[3] = endpoint: mean survival time, dose: 400.0 mg/kg/injection, schedule: Q04DX002 (ip), vehicle: saline
[4] = endpoint: mean survival time, dose: 75.0 mg/kg/injection, schedule: Q01DX001 (ip), vehicle: saline

Measured: T/C

CN(C)c1ccc(N=Nc2ccc(S(=O)(=O)O)cc2)cc1.CN(C)c1ccc(N=Nc2ccc(S(=O)(=O)O)cc2)cc1.[NH-]C1CCCCC1[NH-].[Pt+2]
inactive: endpoint: median survival time, dose: 3.12 mg/kg/injection, schedule: Q04DX003 (ip), vehicle: saline 121 % of control and 107 % of control | endpoint: median survival time, dose: 6.25 mg/kg/injection, schedule: Q04DX003 (ip), vehicle: saline 109 % of control | endpoint: median survival time, dose: 100.0 mg/kg/injection, schedule: Q04DX003 (ip), vehicle: saline 105 % of control | endpoint: median survival time, dose: 200.0 mg/kg/injection, schedule: Q04DX003 (ip), vehicle: saline 116 % of control

CN(C)CC1CCCCCC(CN(C)C)C1=O (stereo unspecified)
inactive: endpoint: mean survival time, dose: 75.0 mg/kg/injection, schedule: Q01DX001 (ip), vehicle: other 102 % of control | endpoint: mean survival time, dose: 150.0 mg/kg/injection, schedule: Q01DX001 (ip), vehicle: other 106 % of control

O=C1CCCO1
inactive: endpoint: mean survival time, dose: 12.0 mg/kg/injection, schedule: Q01DX009 (ip), vehicle: saline 99 % of control | endpoint: mean survival time, dose: 50.0 mg/kg/injection, schedule: Q01DX009 (ip), vehicle: saline 91 % of control | endpoint: mean survival time, dose: 100.0 mg/kg/injection, schedule: Q01DX009 (ip), vehicle: saline 92 % of control | [1] 107 % of control | [2] 98 % of control | [3] 102 % of control

O=C1NCCCS1(=O)=O
inactive: [4] 108 % of control

C1=C[N]2c3c4c(ccc3=C1)=CC=C[N]4[Ga]2[c]1ccccc1
inactive: endpoint: mean survival time, dose: 100.0 mg/kg/injection, schedule: Q04DX003 (ip), vehicle: saline with Tween-80 118 % of control

OC(CN1CCCCC1)c1ccncc1 (stereo unspecified)
inactive: [4] 95 % of control | endpoint: mean survival time, dose: 150.0 mg/kg/injection, schedule: Q01DX001 (ip), vehicle: saline 95 % of control | endpoint: mean survival time, dose: 300.0 mg/kg/injection, schedule: Q01DX001 (ip), vehicle: saline 95 % of control

Cc1ccc(S(=O)(=O)/N=S(/C)CC/S(C)=N/S(=O)(=O)c2ccc(C)cc2)cc1 (stereo unspecified)
inactive: endpoint: mean survival time, dose: 100.0 mg/kg/injection, schedule: Q01DX001 (ip), vehicle: Klucel (hydroxypropylcellulose) (HPC) 97 % of control | endpoint: mean survival time, dose: 200.0 mg/kg/injection, schedule: Q01DX001 (ip), vehicle: Klucel (hydroxypropylcellulose) (HPC) 102 % of control | endpoint: mean survival time, dose: 400.0 mg/kg/injection, schedule: Q01DX001 (ip), vehicle: Klucel (hydroxypropylcellulose) (HPC) 100 % of control

O=C1c2cccc(NCCCNCCO)c2C(=O)c2cccc(NCCCNCCO)c21
inactive: endpoint: median survival time, dose: 6.25 mg/kg/injection, schedule: Q01DX009 (ip), vehicle: acid diluted with saline 105 % of control | endpoint: median survival time, dose: 12.5 mg/kg/injection, schedule: Q01DX009 (ip), vehicle: acid diluted with saline 117 % of control | endpoint: median survival time, dose: 25.0 mg/kg/injection, schedule: Q01DX009 (ip), vehicle: acid diluted with saline 116 % of control | endpoint: median survival time, dose: 50.0 mg/kg/injection, schedule: Q01DX009 (ip), vehicle: acid diluted with saline 88 % of control

CCOC(=O)C(C)(C)CO
inactive: endpoint: mean survival time, dose: 100.0 mg/kg/injection, schedule: Q01DX009 (ip), vehicle: saline sonified 93 % of control | endpoint: mean survival time, dose: 200.0 mg/kg/injection, schedule: Q01DX009 (ip), vehicle: saline sonified 101 % of control | endpoint: mean survival time, dose: 400.0 mg/kg/injection, schedule: Q01DX009 (ip), vehicle: saline sonified 103 % of control | endpoint: mean survival time, dose: 800.0 mg/kg/injection, schedule: Q01DX009 (ip), vehicle: saline sonified 90 % of control

CCCCN=C(Cl)C(Cl)(c1ccccc1)c1ccccc1
inactive: [1] 98 % of control | [2] 103 % of control | [3] 95 % of control

CSc1ncnc2c1ccn2C1OC(CO)C(O)C1O (stereo unspecified)
inactive: endpoint: median survival time, dose: 12.5 mg/kg/injection, schedule: Q01DX005 (ip), vehicle: saline 106 % of control | endpoint: median survival time, dose: 25.0 mg/kg/injection, schedule: Q01DX005 (ip), vehicle: saline 105 % of control | endpoint: median survival time, dose: 50.0 mg/kg/injection, schedule: Q01DX005 (ip), vehicle: saline 102 % of control | endpoint: median survival time, dose: 100.0 mg/kg/injection, schedule: Q01DX005 (ip), vehicle: saline 103 % of control | endpoint: median survival time, dose: 200.0 mg/kg/injection, schedule: Q01DX005 (ip), vehicle: saline 94 % of control

O=C(O)c1cccs1
inactive: endpoint: mean survival time, dose: 100.0 mg/kg/injection, schedule: Q04DX003 (ip), vehicle: other 100 % of control | endpoint: mean survival time, dose: 200.0 mg/kg/injection, schedule: Q04DX003 (ip), vehicle: other 102 % of control

NC(CSS(=O)(=O)CC(N)C(=O)O)C(=O)O (stereo unspecified)
inactive: endpoint: mean survival time, dose: 100.0 mg/kg/injection, schedule: Q04DX003 (ip), vehicle: saline 103 % of control | endpoint: mean survival time, dose: 200.0 mg/kg/injection, schedule: Q04DX003 (ip), vehicle: saline 109 % of control | endpoint: mean survival time, dose: 400.0 mg/kg/injection, schedule: Q04DX003 (ip), vehicle: saline 103 % of control
